Results as given in paper PMC10222646 (Microorganisms, 2023).

How the values were obtained:
[1] = tested on: asexual-stage P. falciparum; test: Antimalarial activity on asexual-stage P. falciparum in human blood (parasitemia, Giemsa smears); format: cell-based, Plasmodium falciparum NF54; settings: day 4, 0.5% starting parasitemia, 2% hematocrit; read-out: EC50 for inhibition of the asexual-stage P. falciparum (parasitemia rates)
Experimental: 3–5-day cultured P. falciparum-infected red blood cells (iRBCs) were mixed with fresh human red blood cells (RBCs) (AB+ type) in complete RPMI 1640 to prepare cultures with 0.5% parasitemia and 2% hematocrit. AST was dissolved in dimethyl sulfoxide (DMSO). Then, 5 μL DMSO with AST at concentrations of 0, 0.5, 1, 2, 4, and 8 mM were added to the 0.5 mL iRBCs in a 48-well plate, yielding final concentrations of 5, 10, 20, 40, and 80 µM, respectively. The plate was incubated in a candle jar at 37 °C. Approximately 48 h later, the medium was replaced with fresh medium containing the same concentration of AST. Parasitemia was recorded via microscopic evaluation of Giemsa-stained blood smears on day 4 post-incubation.

[2] = tested on: human cell lines (HepG2, HEK293, Caco-2, THP-1, macrophage)
[3] = tested on: Anopheles gambiae mosquitoes; test: Mosquito mortality observed in SMFA (insecticidal activity); settings: AST in blood meal
human GS-II (hGS-II) = biological target: T1, human GS-II (hGS-II) (Homo sapiens, UniProt P15104); test: Glutamine synthetase assay, human GS-II (Glutamine/Glutamate-GLO); format: biochemical; settings: 1 µM AST, 30 min, Figure 2b
T1 construct: purchased BioVision Inc., Milpitas, CA, USA
Experimental: The activity and inhibition profiles of purified MBP-fused PfGS-I or human GS-II (hGS-II) (BioVision Inc., Milpitas, CA, USA) in the presence or absence of AST were estimated from glutamine production using Glutamine/Glutamate-GLO^TM Assay Kit (Promega, Madison, WI, USA). The assay mixture (50 mM imidazole-HCl buffer (pH 7.0), 7.6 mM ATP, 50 mM magnesium chloride, 50 mM ammonium chloride) with or without the indicated concentration of GS enzyme was preincubated in the presence or absence of the indicated concentrations of AST for 15 min at room temperature. The reaction was initiated through the addition of L-glutamate at 0.1 mM, the final concentration. The reaction mixtures were incubated at 37 °C with shaking at 300 rpm for the indicated time. The reactions were terminated by chilling the reaction mixture in ice water and filtered with 30 kDa Amicon Ultra centrifugal filters at 4 °C. Glutamate concentrations in the filtered samples were determined using a Glutamine/Glutamate-GLO^TM Assay as instructed in the kit’s manual, from which glutamine concentrations were estimated by subtracting the glutamate concentrations from the initial concentrations (0.1 mM). The EC50 (half maximal effective concentration) of AST for PfGS-I was calculated using Sigma Plot (Systat Software, Inc., Sun Jose, CA, USA).

[4] = biological target: T2, P. falciparum GS-I (PfGS-I) (Plasmodium falciparum, UniProt W7JM41); test: Glutamine synthetase assay, purified MBP-fused PfGS-I (Glutamine/Glutamate-GLO); format: biochemical, Plasmodium falciparum NF54
T2 sequence (W7JM41 1-544): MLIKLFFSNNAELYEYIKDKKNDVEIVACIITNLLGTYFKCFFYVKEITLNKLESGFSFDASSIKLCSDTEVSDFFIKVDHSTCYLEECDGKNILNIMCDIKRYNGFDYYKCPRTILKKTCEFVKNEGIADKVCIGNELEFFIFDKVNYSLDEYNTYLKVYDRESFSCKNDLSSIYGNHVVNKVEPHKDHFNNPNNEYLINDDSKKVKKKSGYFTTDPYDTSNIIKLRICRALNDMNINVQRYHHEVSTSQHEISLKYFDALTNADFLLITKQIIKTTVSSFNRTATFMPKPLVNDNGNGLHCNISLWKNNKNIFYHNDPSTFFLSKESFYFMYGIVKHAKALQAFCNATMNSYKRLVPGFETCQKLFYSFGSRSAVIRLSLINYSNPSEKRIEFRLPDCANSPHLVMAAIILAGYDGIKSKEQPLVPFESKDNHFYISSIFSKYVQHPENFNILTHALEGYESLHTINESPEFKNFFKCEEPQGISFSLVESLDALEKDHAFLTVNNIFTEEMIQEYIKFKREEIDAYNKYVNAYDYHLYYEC

[5] = tested on: macrophage-like cells differentiated from THP-1
[6] = tested on: P. falciparum transmission to Anopheles gambiae mosquitoes; test: Transmission-blocking standard membrane feeding assay (SMFA), oocysts in mosquito midguts; format: in vivo, Plasmodium falciparum NF54; settings: for Mean oocyst number per midgut: control 2.6; for Infect(%) percentage of infected mosquitoes: control 60

T1 sequence (P15104 whole entry): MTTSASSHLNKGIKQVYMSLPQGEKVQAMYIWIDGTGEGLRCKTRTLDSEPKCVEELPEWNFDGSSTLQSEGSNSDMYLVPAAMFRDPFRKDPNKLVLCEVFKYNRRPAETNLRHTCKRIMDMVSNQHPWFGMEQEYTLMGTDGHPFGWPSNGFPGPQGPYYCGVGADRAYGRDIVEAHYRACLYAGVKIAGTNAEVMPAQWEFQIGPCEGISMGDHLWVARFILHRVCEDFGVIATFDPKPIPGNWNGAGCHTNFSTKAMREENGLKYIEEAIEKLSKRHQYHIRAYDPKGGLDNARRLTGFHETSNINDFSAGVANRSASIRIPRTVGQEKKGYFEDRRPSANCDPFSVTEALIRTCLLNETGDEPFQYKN

SMILES: C[As](=O)(O)CC[C@H](N)C(=O)O [AST, 2-amino-4-(hydroxymethylarsinoyl)butanoate]
- CC50 (THP-1): > 250 µM
- EC50 [1]: 13.9 µM
- CC50 (HepG2): > 250 µM
- CC50 (Caco-2): 150 to 200 µM
- permeability (total cellular arsenic levels) [2]: permeable
- insecticidal activity (dead mosquitoes) [3]: no dead mosquitoes were observed
- effect on activity of hGS-II (human GS-II (hGS-II)): did not significantly reduce
- CC50 (HEK293): > 250 µM
- cytotoxicity relative to As(III) (times less cytotoxic) (HEK293): > 10 times
- EC50 [4]: 0.4 µM
- activity of PfGS-I compared with the control without AST treatment ([4]; 1 µM AST, PfGS-I 1 µM, 30 min, Figure 2b): less than 40%
- inhibition of PfGS-I activity ([4]; AST at 100 µM, Figure 2c): completely inhibited
- CC50 [5]: > 250 µM
- inhibition of malaria transmission ([6]; 3 µM AST, SMFA): completely inhibited
- EC50 ([6]; SMFA, day 7 post-infection, read-out: EC50 in blocking the transmission of the sexual-stage P. falciparum to mosquitos (oocysts per mosquito)): 0.34 µM
- Mean oocyst number per midgut ([6]; [AST] 0.1 μM): 2.8
- Infect(%) percentage of infected mosquitoes ([6]; [AST] 0.1 μM): 59.6%
- Mean oocyst number per midgut ([6]; [AST] 0.3 μM): 1.4
- Infect(%) percentage of infected mosquitoes ([6]; [AST] 0.3 μM): 36.8%
- Mean oocyst number per midgut ([6]; [AST] 1 μM): 0.25
- Infect(%) percentage of infected mosquitoes ([6]; [AST] 1 μM): 20%
- Mean oocyst number per midgut ([6]; [AST] 3 μM): 0
- Infect(%) percentage of infected mosquitoes ([6]; [AST] 3 μM): 0%
- Mean oocyst number per midgut ([6]; [AST] 30 μM): 0
- Infect(%) percentage of infected mosquitoes ([6]; [AST] 30 μM): 0%
